Experimental data as given in patent EP4640674A1, “CRYSTAL FORMS OF ETHOXIMOD, PREPARATION METHOD THEREFOR AND USE THEREOF” (Jiankuan (Suzhou) Biotechnology Co., Ltd, priority 2022, dated 2024).

Columns and labels:
[1] = Equilibrium solubility in organic solvents at room temperature (HPLC; solid by XRPD); type: physicochemical; details: equilibrium for 24 h; for solubility at 24 h: organic solvent or mixture, thermodynamic from solid; for solubility: hydrochloride
Experimental: The crystal form A and the crystal form B of ethoximod were prepared into solutions at room temperature with ethanol, acetone and ethyl acetate. After equilibrium for 24 h, filtration was performed to obtain saturated solutions, and contents of the samples in the saturated solutions were measured through high-performance liquid chromatography (HPLC) (diluting the filtrates as needed). Crystal forms of the solids before and after the experiment were characterized through XRPD to check whether phase transition had occurred.

[2] = Dynamic solubility at 37 °C (HPLC; residual solid by XRPD); type: physicochemical; details: for solubility at 1 h / solubility at 2 h / solubility at 4 h / solubility at 24 h: thermodynamic from solid
Experimental: Samples of the crystal form A and the crystal form B of ethoximod were taken and prepared into saturated solutions at 37 °C in Fasted State Simulated Intestinal Fluid (FaSSIF, pH = 8.0), Fed State Simulated Intestinal Fluid (FeSSIF, pH = 5.0), Simulated Gastric Fluid (SGF, pH = 1.0), a hydrochloric acid aqueous solution (pH = 1.0), an acetic acid-sodium acetate buffer system (pH = 4.0), a phosphate buffer system (pH = 6.8) and water. After 1 h/2 h/4 h/24 h, filtration was performed to obtain solutions, and actual concentrations of the samples in the solutions were measured through high-performance liquid chromatography (HPLC) (diluting the filtrates as needed). Crystal forms of the solids before and after the experiment were characterized through XRPD to check whether phase transition had occurred. Table 4 Comparison of solubility of crystal form A and crystal form B

[3] = FaSSIF (pH = 8.0), 37 °C, 1 h, hydrochloride
[4] = FaSSIF (pH = 8.0), 37 °C, 2 h, hydrochloride
[5] = FaSSIF (pH = 8.0), 37 °C, 4 h, hydrochloride
[6] = FaSSIF (pH = 8.0), 37 °C, 24 h, hydrochloride
[7] = FeSSIF (pH = 5.0), 37 °C, 4 h, hydrochloride
[8] = phosphate buffer pH = 6.8, 37 °C, 1 h
[9] = phosphate buffer pH = 6.8, 37 °C, 2 h
[10] = phosphate buffer pH = 6.8, 37 °C, 4 h
[11] = phosphate buffer pH = 6.8, 37 °C, 24 h
[12] = phosphate buffer pH = 6.8, 37 °C, 24 h, hydrochloride

`CCc1nc(-c2ccc(-c3ccc(CCC(N)(CO)CO)cc3)cc2)co1.Cl` [crystal form A, 2-amino-2-{2-(4'-(2-ethyloxazol-4-yl)-[1,1'-biphenyl]-4-yl)ethyl}-1,3-propylene glycol hydrochloride] showed a solubility at 24 h ([1]; acetone) of 30 µg/mL, a solubility at 24 h ([1]; ethanol) of 3470 µg/mL and a solubility ([1]; ethyl acetate) of 40 µg/mL. The “crystal form of the solid” value [2, 3] was “A+free alkali”, the “crystal form of the solid” value [2, 4] was “A+free alkali” and the “crystal form of the solid” value [2, 5] was “A+free alkali”. For the same compound, the “crystal form of the solid” value [2, 6] was “A+free alkali”, the solubility at 1 h ([2]; Fasted State Simulated Intestinal Fluid (FaSSIF), 37 °C, pH 8, fassif, FaSSIF (pH = 8.0), 1 h) was 10 µg/mL and the solubility at 2 h ([2]; Fasted State Simulated Intestinal Fluid (FaSSIF), 37 °C, pH 8, fassif, FaSSIF (pH = 8.0), 2 h) was 9 µg/mL. For the same compound, the solubility at 4 h ([2]; Fasted State Simulated Intestinal Fluid (FaSSIF), 37 °C, pH 8, fassif, FaSSIF (pH = 8.0), 4 h) was 11 µg/mL, the solubility at 24 h ([2]; Fasted State Simulated Intestinal Fluid (FaSSIF), 37 °C, pH 8, fassif, FaSSIF (pH = 8.0), 24 h) was 26 µg/mL and the solubility [2, 7] was 2520 µg/mL. For the same compound, the solubility at 1 h ([2]; Fed State Simulated Intestinal Fluid (FeSSIF), 37 °C, pH 5, fessif, FeSSIF (pH = 5.0), 1 h) was 1540 µg/mL, the solubility at 2 h ([2]; Fed State Simulated Intestinal Fluid (FeSSIF), 37 °C, pH 5, fessif, FeSSIF (pH = 5.0), 2 h) was 2000 µg/mL and the solubility at 24 h ([2]; Fed State Simulated Intestinal Fluid (FeSSIF), 37 °C, pH 5, fessif, FeSSIF (pH = 5.0), 24 h) was 2670 µg/mL. For the same compound, the solubility at 1 h ([2]; Simulated Gastric Fluid (SGF), 37 °C, pH 1, simulated gastric fluid, SGF (pH = 1.0), 1 h) was 240 µg/mL, the solubility at 2 h ([2]; Simulated Gastric Fluid (SGF), 37 °C, pH 1, simulated gastric fluid, SGF (pH = 1.0), 2 h) was 260 µg/mL and the solubility at 4 h ([2]; Simulated Gastric Fluid (SGF), 37 °C, pH 1, simulated gastric fluid, SGF (pH = 1.0), 4 h) was 260 µg/mL. The solubility at 24 h ([2]; Simulated Gastric Fluid (SGF), 37 °C, pH 1, simulated gastric fluid, SGF (pH = 1.0), 24 h) was 270 µg/mL, the solubility at 1 h ([2]; acetic acid-sodium acetate buffer, 37 °C, pH 4, aqueous buffer, acetic acid-sodium acetate buffer pH = 4.0, 37 °C, 1 h) was 2490 µg/mL and the solubility at 2 h ([2]; acetic acid-sodium acetate buffer, 37 °C, pH 4, aqueous buffer, acetic acid-sodium acetate buffer pH = 4.0, 37 °C, 2 h) was 2480 µg/mL. The solubility at 4 h ([2]; acetic acid-sodium acetate buffer, 37 °C, pH 4, aqueous buffer, acetic acid-sodium acetate buffer pH = 4.0, 37 °C, 4 h) was 2740 µg/mL, the solubility at 24 h ([2]; acetic acid-sodium acetate buffer, 37 °C, pH 4, aqueous buffer, acetic acid-sodium acetate buffer pH = 4.0, 37 °C, 24 h) was 2590 µg/mL and the solubility at 1 h ([2]; hydrochloric acid aqueous solution, 37 °C, pH 1, simulated gastric fluid, hydrochloric acid aqueous solution pH = 1.0, 37 °C, 1 h) was 280 µg/mL. It also gave a solubility at 2 h ([2]; hydrochloric acid aqueous solution, 37 °C, pH 1, simulated gastric fluid, hydrochloric acid aqueous solution pH = 1.0, 37 °C, 2 h) of 280 µg/mL, a solubility at 4 h ([2]; hydrochloric acid aqueous solution, 37 °C, pH 1, simulated gastric fluid, hydrochloric acid aqueous solution pH = 1.0, 37 °C, 4 h) of 290 µg/mL and a solubility at 24 h ([2]; hydrochloric acid aqueous solution, 37 °C, pH 1, simulated gastric fluid, hydrochloric acid aqueous solution pH = 1.0, 37 °C, 24 h) of 380 µg/mL. The “crystal form of the solid” value [2, 8] was “free alkali”, the solubility ([2]; phosphate buffer pH = 6.8, 37 °C, 1 h, hydrochloride) was 0.2 µg/mL and the “crystal form of the solid” value [2, 9] was “free alkali”. The “crystal form of the solid” value [2, 10] was “free alkali”, the “crystal form of the solid” value [2, 11] was “free alkali” and the solubility [2, 12] was 0.76 µg/mL. For the same compound, the solubility at 2 h ([2]; phosphate buffer, 37 °C, pH 6.8, aqueous buffer, phosphate buffer pH = 6.8, 37 °C, 2 h) was 0.07 µg/mL, the solubility at 4 h ([2]; phosphate buffer, 37 °C, pH 6.8, aqueous buffer, phosphate buffer pH = 6.8, 37 °C, 4 h) was 0.14 µg/mL and the solubility at 1 h ([2]; water, 37 °C, 1 h) was 2080 µg/mL. It also gave a solubility at 2 h ([2]; water, 37 °C, 2 h) of 2150 µg/mL, a solubility at 4 h ([2]; water, 37 °C, 4 h) of 2140 µg/mL and a solubility at 24 h ([2]; water, 37 °C, 24 h) of 2260 µg/mL.
With `CCc1nc(-c2ccc(-c3ccc(CCC(N)(CO)CO)cc3)cc2)co1.Cl` [crystal form B, 2-amino-2-{2-(4'-(2-ethyloxazol-4-yl)-[1,1'-biphenyl]-4-yl)ethyl}-1,3-propylene glycol hydrochloride] the solubility ([1]; acetone) was 20 µg/mL, the solid-state crystal form ([1]; ethanol) was “C, with relatively poor crystallinity” and the solubility ([1]; ethanol) was 5050 µg/mL. For the same compound, the solubility ([1]; ethyl acetate) was 10 µg/mL, the “crystal form of the solid” value [2, 3] was “free alkali” and the solubility [2, 3] was 15 µg/mL. The “crystal form of the solid” value [2, 4] was “free alkali”, the solubility [2, 4] was 10 µg/mL and the “crystal form of the solid” value [2, 5] was “free alkali”. For the same compound, the solubility [2, 5] was 8 µg/mL, the “crystal form of the solid” value [2, 6] was “free alkali” and the solubility [2, 6] was 21 µg/mL. For the same compound, the solubility ([2]; FeSSIF (pH = 5.0), 37 °C, 1 h, hydrochloride) was 1480 µg/mL, the solubility ([2]; FeSSIF (pH = 5.0), 37 °C, 2 h, hydrochloride) was 1630 µg/mL and the solubility [2, 7] was 1210 µg/mL. The solubility ([2]; FeSSIF (pH = 5.0), 37 °C, 24 h, hydrochloride) was 1670 µg/mL, the solubility ([2]; SGF (pH = 1.0), 37 °C, 1 h, hydrochloride) was 290 µg/mL and the solubility ([2]; SGF (pH = 1.0), 37 °C, 2 h, hydrochloride) was 280 µg/mL. The solubility ([2]; SGF (pH = 1.0), 37 °C, 4 h, hydrochloride) was 320 µg/mL, the solubility ([2]; SGF (pH = 1.0), 37 °C, 24 h, hydrochloride) was 360 µg/mL and the solubility ([2]; acetic acid-sodium acetate buffer pH = 4.0, 37 °C, 1 h, hydrochloride) was 1450 µg/mL. The solubility ([2]; acetic acid-sodium acetate buffer pH = 4.0, 37 °C, 2 h, hydrochloride) was 1780 µg/mL, the solubility ([2]; acetic acid-sodium acetate buffer pH = 4.0, 37 °C, 4 h, hydrochloride) was 1930 µg/mL and the solubility ([2]; acetic acid-sodium acetate buffer pH = 4.0, 37 °C, 24 h, hydrochloride) was 2610 µg/mL. It also gave a solubility ([2]; hydrochloric acid aqueous solution pH = 1.0, 37 °C, 1 h, hydrochloride) of 300 µg/mL, a solubility ([2]; hydrochloric acid aqueous solution pH = 1.0, 37 °C, 2 h, hydrochloride) of 410 µg/mL and a solubility ([2]; hydrochloric acid aqueous solution pH = 1.0, 37 °C, 4 h, hydrochloride) of 320 µg/mL. The solubility ([2]; hydrochloric acid aqueous solution pH = 1.0, 37 °C, 24 h, hydrochloride) was 360 µg/mL, the “crystal form of the solid” value [2, 8] was “free alkali” and the “crystal form of the solid” value [2, 9] was “free alkali”. For the same compound, the solubility ([2]; phosphate buffer pH = 6.8, 37 °C, 2 h, hydrochloride) was “lower than limit of detection”, the “crystal form of the solid” value [2, 10] was “free alkali” and the solubility ([2]; phosphate buffer pH = 6.8, 37 °C, 4 h, hydrochloride) was “lower than limit of detection”. The “crystal form of the solid” value [2, 11] was “free alkali”, the solubility [2, 12] was 1.9 µg/mL and the solubility at 1 h ([2]; phosphate buffer, 37 °C, pH 6.8, aqueous buffer, phosphate buffer pH = 6.8, 37 °C, 1 h) was 0.1 µg/mL. For the same compound, the solubility ([2]; water, 37 °C, 1 h, hydrochloride) was 1690 µg/mL, the solubility ([2]; water, 37 °C, 2 h, hydrochloride) was 1650 µg/mL and the solubility ([2]; water, 37 °C, 4 h, hydrochloride) was 2500 µg/mL. It also gave a solubility ([2]; water, 37 °C, 24 h, hydrochloride) of 2160 µg/mL.
